{"source": "patent US20260285850A1", "about": "“SUBSTITUTED OXAZOLIDINONES AND IMIDAZOLINONES AS HERBICIDES” (FMC CORPORATION, priority 2023, published 2026)", "format_in_all_cases": "in vivo", "key": {"[1]": {"system": "galium (catchweed bedstraw, Galium aparine)", "assay": "Test A postemergence application, visual injury rating 0-100", "summary_of_the_method": "(§1)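 Rating: visual, day 10, untreated plants as reference, 0 no effect to 100 full control. Plants were in loam-sand and were treated either preemergence via directed soil spray or postemergence at the one- to two-leaf stage.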"}, "[2]": {"system": "oat, wild (wild oat, Avena fatua)", "assay": "Test A postemergence application, visual injury rating 0-100", "summary_of_the_method": "as §1"}, "[3]": {"system": "ryegrass, Italian (italian ryegrass, Lolium multiflorum)", "assay": "Test A postemergence application, visual injury rating 0-100", "summary_of_the_method": "as §1"}, "[4]": {"system": "blackgrass (Alopecurus myosuroides)", "assay": "Test A postemergence application, visual injury rating 0-100", "summary_of_the_method": "as §1"}, "[5]": {"system": "wheat (Triticum aestivum)", "assay": "Test A postemergence application, visual injury rating 0-100", "summary_of_the_method": "as §1"}, "[6]": {"system": "barnyardgrass (Echinochloa crus-galli)", "assay": "Test A postemergence application, visual injury rating 0-100", "summary_of_the_method": "as §1"}, "[7]": {"system": "kochia (Bassia scoparia)", "assay": "Test A postemergence application, visual injury rating 0-100", "summary_of_the_method": "as §1"}, "[8]": {"system": "horseweed (Erigeron canadensis)", "assay": "Test A postemergence application, visual injury rating 0-100", "summary_of_the_method": "as §1"}, "[9]": {"system": "palmer (palmer amaranth, palmer pigweed, Amaranthus palmeri)", "assay": "Test A postemergence application, visual injury rating 0-100", "summary_of_the_method": "as §1"}, "[10]": {"system": "ragweed (common ragweed, Ambrosia artemisiifolia)", "assay": "Test A postemergence application, visual injury rating 0-100", "summary_of_the_method": "as §1"}, "[11]": {"system": "corn (Zea mays)", "assay": "Test A postemergence application, visual injury rating 0-100", "summary_of_the_method": "as §1"}, "[12]": {"system": "soybean (Glycine max)", "assay": "Test A postemergence application, visual injury rating 0-100", "summary_of_the_method": "as §1"}, "[13]": {"system": "green foxtail (Setaria viridis)", "assay": "Test A postemergence application, visual injury rating 0-100", "summary_of_the_method": "as §1"}, "[14]": {"system": "oat, wild (wild oat, Avena fatua)", "assay": "Test A preemergence soil spray, visual injury rating 0-100", "conditions": "10 days", "summary_of_the_method": "as §1"}, "[15]": {"system": "ryegrass, Italian (italian ryegrass, Lolium multiflorum)", "assay": "Test A preemergence soil spray, visual injury rating 0-100", "conditions": "10 days", "summary_of_the_method": "as §1"}, "[16]": {"system": "blackgrass (Alopecurus myosuroides)", "assay": "Test A preemergence soil spray, visual injury rating 0-100", "conditions": "10 days", "summary_of_the_method": "as §1"}, "[17]": {"system": "wheat (Triticum aestivum)", "assay": "Test A preemergence soil spray, visual injury rating 0-100", "conditions": "10 days", "summary_of_the_method": "as §1"}, "[18]": {"system": "barnyardgrass (Echinochloa crus-galli)", "assay": "Test A preemergence soil spray, visual injury rating 0-100", "conditions": "10 days", "summary_of_the_method": "as §1"}, "[19]": {"system": "kochia (Bassia scoparia)", "assay": "Test A preemergence soil spray, visual injury rating 0-100", "conditions": "10 days", "summary_of_the_method": "as §1"}, "[20]": {"system": "palmer (palmer amaranth, palmer pigweed, Amaranthus palmeri)", "assay": "Test A preemergence soil spray, visual injury rating 0-100", "conditions": "10 days", "summary_of_the_method": "as §1"}, "[21]": {"system": "ragweed (common ragweed, Ambrosia artemisiifolia)", "assay": "Test A preemergence soil spray, visual injury rating 0-100", "conditions": "10 days", "summary_of_the_method": "as §1"}, "[22]": {"system": "corn (Zea mays)", "assay": "Test A preemergence soil spray, visual injury rating 0-100", "conditions": "10 days", "summary_of_the_method": "as §1"}, "[23]": {"system": "soybean (Glycine max)", "assay": "Test A preemergence soil spray, visual injury rating 0-100", "conditions": "10 days", "summary_of_the_method": "as §1"}, "[24]": {"system": "green foxtail (Setaria viridis)", "assay": "Test A preemergence soil spray, visual injury rating 0-100", "conditions": "10 days", "summary_of_the_method": "as §1"}, "[25]": {"system": "ducksalad (Heteranthera limosa)", "assay": "Test B flooded paddy test, visual plant response rating 0-100", "conditions": "250 g ai/ha, Flood, applied to paddy water, evaluated after 13 days", "summary_of_the_method": "(§2)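 Visual scores versus untreated controls were recorded 13 days after treatment of greenhouse-held plants. At the 2-leaf stage, pots were flooded 3 cm above the soil surface and compounds added straight to the water.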"}, "[26]": {"system": "sedge, umbrella (small-flower umbrella sedge, Cyperus difformis)", "assay": "Test B flooded paddy test, visual plant response rating 0-100", "conditions": "250 g ai/ha, Flood, applied to paddy water, evaluated after 13 days", "summary_of_the_method": "as §2"}, "[27]": {"system": "barnyardgrass (Echinochloa crusgalli)", "assay": "Test B flooded paddy test, visual plant response rating 0-100", "conditions": "250 g ai/ha, Flood, applied to paddy water, evaluated after 13 days", "summary_of_the_method": "as §2"}, "[28]": {"system": "rice (Oryza sativa)", "assay": "Test B flooded paddy test, visual plant response rating 0-100", "conditions": "250 g ai/ha, Flood, applied to paddy water, evaluated after 13 days", "summary_of_the_method": "as §2"}, "[29]": {"conditions": "62 g ai/ha, postemergence, 10 days, 0 = no effect, 100 = complete control"}, "[30]": {"conditions": "Postemergence, 16 g ai/ha, greenhouse 10 days, 0 no effect, 100 complete control"}, "[31]": {"conditions": "62 g ai/ha, 0 = no effect, 100 = complete control"}}, "data": [{"smiles": "CSCCOC(=O)C1CC(NC(=O)C2(C)CN(c3cc(F)cc(F)c3)C(=O)O2)C1", "note": "(racemic) [Compound 120]", "values": [{"measurement": "Galium plant response rating (0-100)", "setting": "[1]; [29]", "result": 70}, {"measurement": "Galium plant response rating (0 to 100 scale)", "setting": "[1]; [30]", "result": 20}, {"measurement": "Oat, Wild plant response rating (0-100)", "setting": "[2]; [29]", "result": 80}, {"measurement": "Oat, Wild plant response rating (0 to 100 scale)", "setting": "[2]; [30]", "result": 30}, {"measurement": "Ryegrass, Italian plant response rating (0-100)", "setting": "[3]; [29]", "result": 70}, {"measurement": "Ryegrass, Italian plant response rating (0 to 100 scale)", "setting": "[3]; [30]", "result": 10}, {"measurement": "Blackgrass plant response rating (0-100)", "setting": "[4]; [29]", "result": 90}, {"measurement": "Blackgrass plant response rating (0 to 100 scale)", "setting": "[4]; [30]", "result": 70}, {"measurement": "Wheat plant response rating (0-100)", "setting": "[5]; [29]", "result": 90}, {"measurement": "Wheat plant response rating (0 to 100 scale)", "setting": "[5]; [30]", "result": 90}, {"measurement": "Barnyardgrass plant response rating (0-100)", "setting": "[6]; [29]", "result": 100}, {"measurement": "Barnyardgrass plant response rating (0 to 100 scale)", "setting": "[6]; [30]", "result": 50}, {"measurement": "Kochia plant response rating (0-100)", "setting": "[7]; [29]", "result": 80}, {"measurement": "Kochia plant response rating (0 to 100 scale)", "setting": "[7]; [30]", "result": 0}, {"measurement": "Horseweed plant response rating (0-100)", "setting": "[8]; [29]", "result": 10}, {"measurement": "Horseweed plant response rating (0 to 100 scale)", "setting": "[8]; [30]", "result": 10}, {"measurement": "Pigweed, Palmer plant response rating (0-100)", "setting": "[9]; [29]", "result": 70}, {"measurement": "Pigweed, Palmer plant response rating (0 to 100 scale)", "setting": "[9]; [30]", "result": 10}, {"measurement": "Ragweed plant response rating (0-100)", "setting": "[10]; [29]", "result": 40}, {"measurement": "Ragweed plant response rating (0 to 100 scale)", "setting": "[10]; [30]", "result": 20}, {"measurement": "Corn plant response rating (0-100)", "setting": "[11]; [29]", "result": 100}, {"measurement": "Corn plant response rating (0 to 100 scale)", "setting": "[11]; [30]", "result": 90}, {"measurement": "Soybean plant response rating (0-100)", "setting": "[12]; [29]", "result": 80}, {"measurement": "Soybean plant response rating (0 to 100 scale)", "setting": "[12]; [30]", "result": 50}, {"measurement": "Foxtail, Green plant response rating (0-100)", "setting": "[13]; [29]", "result": 90}, {"measurement": "Foxtail, Green plant response rating (0 to 100 scale)", "setting": "[13]; [30]", "result": 60}, {"measurement": "Oat, Wild plant response rating", "setting": "[14]; 16 g ai/ha, 0 to 100 scale", "result": 90}, {"measurement": "Oat, Wild plant response rating (0-100)", "setting": "[14]; [31]", "result": 90}, {"measurement": "Ryegrass, Italian plant response rating", "setting": "[15]; 16 g ai/ha, 0 to 100 scale", "result": 10}, {"measurement": "Ryegrass, Italian plant response rating (0-100)", "setting": "[15]; [31]", "result": 80}, {"measurement": "Blackgrass plant response rating", "setting": "[16]; 16 g ai/ha, 0 to 100 scale", "result": 40}, {"measurement": "Blackgrass plant response rating (0-100)", "setting": "[16]; [31]", "result": 80}, {"measurement": "Wheat plant response rating", "setting": "[17]; 16 g ai/ha, 0 to 100 scale", "result": 20}, {"measurement": "Wheat plant response rating (0-100)", "setting": "[17]; [31]", "result": 70}, {"measurement": "Barnyardgrass plant response rating", "setting": "[18]; 16 g ai/ha, 0 to 100 scale", "result": 0}, {"measurement": "Barnyardgrass plant response rating (0-100)", "setting": "[18]; [31]", "result": 60}, {"measurement": "Kochia plant response rating", "setting": "[19]; 16 g ai/ha, 0 to 100 scale", "result": 0}, {"measurement": "Kochia plant response rating (0-100)", "setting": "[19]; [31]", "result": 30}, {"measurement": "Pigweed, Palmer plant response rating", "setting": "[20]; 16 g ai/ha, 0 to 100 scale", "result": 0}, {"measurement": "Pigweed, Palmer plant response rating (0-100)", "setting": "[20]; [31]", "result": 20}, {"measurement": "Ragweed plant response rating", "setting": "[21]; 16 g ai/ha, 0 to 100 scale", "result": 10}, {"measurement": "Ragweed plant response rating (0-100)", "setting": "[21]; [31]", "result": 0}, {"measurement": "Corn plant response rating", "setting": "[22]; 16 g ai/ha, 0 to 100 scale", "result": 0}, {"measurement": "Corn plant response rating (0-100)", "setting": "[22]; [31]", "result": 80}, {"measurement": "Soybean plant response rating", "setting": "[23]; 16 g ai/ha, 0 to 100 scale", "result": 0}, {"measurement": "Soybean plant response rating (0-100)", "setting": "[23]; [31]", "result": 0}, {"measurement": "Foxtail, Green plant response rating", "setting": "[24]; 16 g ai/ha, 0 to 100 scale", "result": 20}, {"measurement": "Foxtail, Green plant response rating (0-100)", "setting": "[24]; [31]", "result": 20}, {"measurement": "Plant response rating, Ducksalad (0 to 100 scale, 0 is no effect and 100 is complete control)", "setting": "[25]", "result": 0}, {"measurement": "Plant response rating, Sedge, Umbrella (0 to 100 scale, 0 is no effect and 100 is complete control)", "setting": "[26]", "result": 0}, {"measurement": "Plant response rating, Barnyardgrass (0 to 100 scale, 0 is no effect and 100 is complete control)", "setting": "[27]", "result": 0}, {"measurement": "Plant response rating, Rice (0 to 100 scale, 0 is no effect and 100 is complete control)", "setting": "[28]", "result": 0}]}]}
